Data as given in US11844846B2, “Styrylbenzothiazole derivatives and uses in imaging methods” (Emory University, priority 2018, dated 2023).
Where “and” joins values, the source holds several entries; their conditions need not be identical. Equal entries are not always repeated. Entries after “also recorded” stand apart in the source; their conditions may differ. Where two headings read alike, the source gives them in different places.

What was measured:
[1] = plasma-brain ratio study / in vivo PK of EU compounds; design: species or system mouse
Experimental: To address whether the selected compounds penetrate the brain, a plasma-brain ratio study was performed with EU04-03A, EU05-02A and EU05-02B.
To test whether these compounds are brain permeable in vivo, in vivo PK profiling was conducted to determine brain exposure.

[2] = tested on: neurons with Aβ or Tau aggregates; assay: neuronal Aβ and Tau aggregation models, fluorescent microscopy; type: cell-based; settings: primary cultured neurons
From the text: (§1) A series of derivatives were synthesized by including an amino group and a methyl group on benzothiazole to increase the brain permeability and fluorescent signals. The derivatives were subsequently subjected to α-Syn PFFs binding assay and counter-screening with Tau and Aβ PFFs. […] These compounds were screened on the neuronal α-Syn, Tau and Aβ aggregation model for the binding selectivity. Primary cultured neurons were infected with AAV-α-Syn, AAV-Tau FL for 7 days, then treated with α-Syn, Tau or Aβ PFFs. In a few days, the positive compounds were added in the primary neurons with indicated aggregates and analyzed under fluorescent microscopy.
(§2) Primary cultured neurons were infected with AAV-α-Syn, AAV-Tau FL or AAV-APP fragment virus for 7 days, and then treated with α-Syn, Tau or Aβ PFFs by following the described protocols (Volpicelli-Daley et al., 2014). In a few days, the positive compounds were added in the primary neurons with indicated aggregation.

[3] = tested on: senile plaques or NFT in AD; assay: ex vivo screening on AD patient brain sections; type: binding, human
From the text: (§3) Ex vivo screening was extended into human DLB, MSA and AD patient samples. […] Since there are detectable α-Syn aggregates in AD patient brains, these compounds colocalized with p-S129 positive α-Syn inclusions.
(§4) The ex vivo screening was extended into human DLB, MSA and AD patient samples. Neurodegenerative disease of DLB (dementia with Lewy Bodies) and MSA belongs to synucleinopathies with well-defined Lewy bodies.

[4] = target: α-Syn PFFs (Homo sapiens, UniProt P37840); assay: fluorescence spectroscopy titration with α-Syn PFFs; type: binding; settings: 0.08 μM fibrils, 5 μM small molecule, result in words
Experimental: (§5) A fluorescent titration assay was conducted. The fluorescent emission intensities were determined with 0.08 μM of various fibrils in the presence of 5 μM of the small molecules.
(§6) To further investigate the selected compounds binding activities with α-Syn PFFs, fluorescence spectroscopy titrations were conducted to quantitatively measure compounds emission intensity when interacting with different concentrations of α-Syn PFFs. The UV spectrum of each compound was determined and selected for the optimal wavelength to conduct the fluorescence spectroscopic studies.

[5] = tested on: α-Syn aggregated neurons; assay: neuronal α-Syn aggregation model, fluorescent microscopy; type: cell-based; settings: primary cultured neurons, AAV-α-Syn plus α-Syn PFFs
From the text: as §1, §2

[6] = target: Tau PFFs (Homo sapiens, UniProt P10636); assay: fluorescence spectroscopy titration with Tau PFFs; type: binding; settings: 0.08 μM fibrils, 5 μM small molecule; result in words
Chain of Tau PFFs (P10636 whole entry): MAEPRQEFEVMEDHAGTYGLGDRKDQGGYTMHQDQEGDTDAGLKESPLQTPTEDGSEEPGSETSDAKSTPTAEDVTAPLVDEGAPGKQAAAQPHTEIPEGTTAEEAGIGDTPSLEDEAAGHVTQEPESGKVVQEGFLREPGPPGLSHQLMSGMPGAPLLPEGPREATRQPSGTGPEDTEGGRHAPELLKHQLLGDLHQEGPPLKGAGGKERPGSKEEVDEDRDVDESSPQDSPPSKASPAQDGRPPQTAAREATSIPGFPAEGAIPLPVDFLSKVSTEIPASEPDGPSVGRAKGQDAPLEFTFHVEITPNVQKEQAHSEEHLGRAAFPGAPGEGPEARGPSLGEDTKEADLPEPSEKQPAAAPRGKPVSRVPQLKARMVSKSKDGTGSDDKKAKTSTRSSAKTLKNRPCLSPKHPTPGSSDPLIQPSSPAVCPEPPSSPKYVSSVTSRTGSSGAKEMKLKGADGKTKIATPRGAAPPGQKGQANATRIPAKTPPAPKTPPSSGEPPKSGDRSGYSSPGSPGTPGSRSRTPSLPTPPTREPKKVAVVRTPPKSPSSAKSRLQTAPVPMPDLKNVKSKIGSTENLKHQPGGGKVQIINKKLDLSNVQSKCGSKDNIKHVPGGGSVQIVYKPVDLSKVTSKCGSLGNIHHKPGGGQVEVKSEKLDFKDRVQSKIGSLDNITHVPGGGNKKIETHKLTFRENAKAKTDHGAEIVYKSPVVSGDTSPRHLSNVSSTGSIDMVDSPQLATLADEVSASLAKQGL
Experimental: as §5, §6

[7] = target: T1, LBs and LNs in DLB and MSA patient brains (Homo sapiens, UniProt P37840); assay: ex vivo screening on DLB and MSA patient brain sections; type: binding
T1 construct: from tissue; host or cells: brain sections of DLB and MSA patients
From the text: as §3, §4

[8] = target: T2, Lewy bodies in α-Syn A53T virus injected WT mice brain slices (Homo sapiens, UniProt P37840, A53T); assay: staining of mouse brain slices with Lewy bodies; type: binding
T2 construct: from tissue; host or cells: brain (substantia nigra) of wild-type mice injected with α-Syn A53T virus
Experimental: (§7) To further explore whether the positive compounds selectively bind to the Lewy bodies, α-Syn A53T patient-derived mutant virus injected WT mice brain slices were employed. These mice display extensive Lewy bodies in the SN.
(§8) To further explore whether the positive compounds selectively bind to the Lewy bodies, a α-Syn A53T patient-derived mutant virus was injected into WT mice brain slices. These mice display extensive Lewy bodies in the Substantial nigra (SN). Moreover, P301S mice expressed neurofibrillary tangles (NFT). The Lewy bodies were labeled with p-α-Syn S129 antibody and the positive aggregates were also labeled with the fluorescent signals from the small molecules. […] However, it was worth noting that almost none of the tested compounds were reactive with NFT.

[9] = target: T3, Aβ PFFs (Homo sapiens, UniProt P05067); assay: fluorescence spectroscopy titration with Aβ PFFs; type: binding; settings: 0.08 μM fibrils, 5 μM small molecule; result in words
T3 construct: counter-screening with Tau and Aβ PFFs
T3 sequence (P05067 672-713 limits assumed): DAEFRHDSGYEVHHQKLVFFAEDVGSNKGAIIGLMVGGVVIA
Experimental: as §5, §6

[10] = target: pre-formed fibrils (PFFs) of α-Synuclein (Homo sapiens, UniProt P37840); assay: in vitro binding assay with α-Syn PFFs; settings: counter-screening, result in words
From the text: The general strategy that was employed to screen the candidate Lewy body PET agents is summarized as follows: (a) To perform in vitro binding assay with Pre-formed fibrils (PFFs) of α-Syn and counter-screening with Tau and Aβ PFFs; (b) To test the positive compounds in the neuronal models with aggregated α-Syn, Tau or […]; (c) To screen with the brain slides from α-Syn mutant A53T virus injected WT mice, and counter-screen with aged 3×Tg (containing both senile plaques and NFT), and aged Tau P301S (NFT) brain sections; (d) to screen the patient brain sections from DLB and MSA against AD; (e) To determine the binding kinetics between α-Syn PFFs and positive hits; (f) To determine the candidates in vivo brain/plasma (B/P) ratios and the brain permeability; (g) To determine the in vivo PET images in α-Syn A53T with candidates and compare its images in 5XFAD and Tau P301S mice.
To perform in vitro binding assay, commercial compounds were screened (See FIG. 7B).
as §1
To perform in vitro binding assay, compounds were screened. […] An amino group and a methyl group in the benzothazole were added to increase its brain permeability and fluorescent signals. […] The synthesized derivatives were subsequently subjected to the α-Syn PFFs binding and counter-screen of Tau and Aβ PFFs as described above.

[11] = target: T4, senile plaques in 5×FAD and 3×Tg mice brain sections (Homo sapiens, UniProt P05067); assay: staining of mouse brain sections with senile plaques; type: binding
T4 construct: Aβ-enriched senile plaques; from tissue; host or cells: brain sections of 5×FAD and 3×Tg mice
T4 sequence (P05067 672-713 limits assumed): as above

[12] = tested on: NFT in Tau P301S and 3×Tg mice brain sections; assay: staining of mouse brain sections with NFT; type: binding
Experimental: as §7, §8

For `COc1cc(/C=C/c2nc3cc(C)c(N(C)C)cc3s2)ccc1O` [EU-005-02A, (E)-4-(2-(6-(dimethylamino)-5-methylbenzo[d]thiazol-2-yl)vinyl)-2-methoxyphenol], the B/P ([1]; Male ICR Mouse, 5 mg/kg IV, 0.50 h, single animals, 5 mg/kg) was 0.65 and 1.62 and 0.69, the B/P ([1]; Male ICR Mouse, 5 mg/kg IV, 1.00 h, single animals, 5 mg/kg) was 0.46 and 0.26 and the B/P ([1]; Male ICR Mouse, 5 mg/kg IV, 2.00 h, single animals, 5 mg/kg) was 0.49 and 0.34. The Kp at 0.5 h ([1]; male, ICR, mouse, brain, iv, 5 mg/kg, Male ICR Mouse, 5 mg/kg IV, 0.50 h, read-out: B/P Mean) was 0.99, the Kp at 1 h ([1]; male, ICR, mouse, brain, iv, 5 mg/kg, Male ICR Mouse, 5 mg/kg IV, 1.00 h, single animals, read-out: B/P) was 0.52 and the Kp at 1 h ([1]; male, ICR, mouse, brain, iv, 5 mg/kg, Male ICR Mouse, 5 mg/kg IV, 1.00 h, read-out: B/P Mean) was 0.41. The Kp at 2 h ([1]; male, ICR, mouse, brain, iv, 5 mg/kg, Male ICR Mouse, 5 mg/kg IV, 2.00 h, single animals, read-out: B/P) was 0.42, the Kp at 2 h ([1]; male, ICR, mouse, brain, iv, 5 mg/kg, Male ICR Mouse, 5 mg/kg IV, 2.00 h, read-out: B/P Mean) was 0.41 and the “in vivo half-life / decay” value ([1]; mice, i.v. 5 mg/kg, result in words) was “decayed 2 h after i.v. administration”. For the same compound, the “fluorescent signal in neurons with Aβ or Tau aggregates” value [2] was “negligible effects in neurons with Aβ or Tau aggregates”, the “staining of senile plaques or NFT (Aβ, AT8 positive aggregates)” value (“staining of senile plaques or NFT” for short) [3] was “barely co-stained with anti-AD or AT8 positive aggregate signals” and the “staining of senile plaques or NFT” value ([3]; listed as EU05-02A) was “barely recognized AT8 positive Tau NFT or Aβ aggregates in AD brains”. For the same compound, the “binding to α-Syn PFFs by fluorescent emission intensity” value (shortened to “binding to α-Syn PFFs”) [4] was “strongly bound to both α-Syn and Tau PFFs”, the “binding to α-Syn PFFs” value ([4]; listed as EU-05-02A) was “but not EU-05-02A and EU-04-03A showed specific association with the PFFs” and the “fluorescent signal in α-Syn aggregated neurons” value [5] was “positive for selective binding”. For the same compound, the “fluorescent signal in α-Syn aggregated neurons” value ([5]; listed as EU05-02A) was “positive signals in α-Syn aggregated neurons”, the “binding to Tau PFFs by fluorescent emission intensity” value [6] was “strongly bound to both α-Syn and Tau PFFs” and the “staining of LBs and LNs” value [7] was “robust signals with LBs and LNs”. For the same compound, the “staining of LBs and LNs” value ([7]; listed as EU05-02A) was “co-stained with Lewy bodies” and the “staining of Lewy bodies (p-α-Syn S129 positive)” value [8] was “signals were very weak”.
With `CN(C)c1ccc2nc(/C=C/c3ccc(O)c(Br)c3)sc2c1` [EU-004-02B, (E)-2-bromo-4-(2-(6-(dimethylamino)benzo[d]thiazol-2-yl)vinyl)phenol] the “binding to α-Syn PFFs” value [4] was “modest and weak binding activities toward these 3 PFFs”, the “binding to Aβ PFFs by fluorescent emission intensity” value [9] was “modest and weak binding activities toward these 3 PFFs” and the “binding to Tau PFFs by fluorescent emission intensity” value [6] was “modest and weak binding activities toward these 3 PFFs”.
With `CCNc1ccc2nc(/C=C/c3ccc(O)c(OC)c3)sc2c1` [EU-004-03A, (E)-4-(2-(6-(ethylamino)benzo[d]thiazol-2-yl)vinyl)-2-methoxyphenol] the brain permeability ([1]; mice, i.v., result in words, listed as EU04-03A) was “swiftly penetrated the brain and exhibited much higher brain permeability compared to EU05-02A; also recorded: higher brain permeability than EU05-02B”, the “fluorescent signal in neurons with Aβ or Tau aggregates” value [2] was “negligible effects in neurons with Aβ or Tau aggregates” and the “staining of senile plaques or NFT” value [3] was “barely co-stained with anti-AD or AT8 positive aggregate signals”. For the same compound, the “staining of senile plaques or NFT” value ([3]; listed as EU04-03A) was “barely recognized AT8 positive Tau NFT or Aβ aggregates in AD brains”, the “binding to α-Syn PFFs” value [4] was “but not EU-05-02A and EU-04-03A showed specific association with the PFFs” and the “fluorescent signal in α-Syn aggregated neurons” value [5] was “positive for selective binding”. The “fluorescent signal in α-Syn aggregated neurons” value ([5]; listed as EU04-03A) was “positive signals in α-Syn aggregated neurons”, the “staining of LBs and LNs” value [7] was “robust signals with LBs and LNs” and the “staining of LBs and LNs” value ([7]; listed as EU04-03A) was “co-stained with Lewy bodies”.
For `Cc1ccc2c(c1)sc(-c1ccc(N(C)C)cc1)[n+]2C.[Cl-]` [ThT, reference compound], the “binding selectivity α-Syn versus Aβ or Tau PFFs” value [10] was “non-selectively interacted with these PFFs; also recorded: non-selectively interacted with both α-Syn and Tau PFFs”, the “staining of senile plaques” value [11] was “co-localized with all of these aggregates in the brain sections” and the “staining of NFT” value [12] was “co-localized with all of these aggregates in the brain sections”. The “staining of Lewy bodies (p-α-Syn S129 positive)” value [8] was “co-localized with all of these aggregates in the brain sections; also recorded: co-localized with p-S129 aggregates in the brain sections”.
In the case of `COc1cc(/C=C/c2nc3ccc(N(C)C)cc3s2)ccc1O` [EU-004-02A, (E)-4-(2-(6-(dimethylamino)benzo[d]thiazol-2-yl)vinyl)-2-methoxyphenol], the “staining of Lewy bodies (p-α-Syn S129 positive)” value [8] was “signals were very weak”.
